Where “and” joins values, the source holds several entries; their conditions need not be identical. Equal values may be shown once. Read-outs that look alike come from different tables or passages of the source.
Experiments:
ENT3 = target: T1, ENT3 (Homo sapiens, UniProt Q9BZD2); parameters: method as in PMID 33623001; conditions: previous studies, cited from earlier work; for Km: read-out: Km of BA transport by ENT3
T1 construct: plasma membrane–directed ENT3 with a truncated N-terminus (that harbors lysosomal targeting motif); expressed in transfected cells; host or cells: Xenopus laevis oocytes injected with in vitro-transcribed mRNA from pOX-Δ36hENT3
T1 sequence (Q9BZD2 with tags, fused parts or gaps): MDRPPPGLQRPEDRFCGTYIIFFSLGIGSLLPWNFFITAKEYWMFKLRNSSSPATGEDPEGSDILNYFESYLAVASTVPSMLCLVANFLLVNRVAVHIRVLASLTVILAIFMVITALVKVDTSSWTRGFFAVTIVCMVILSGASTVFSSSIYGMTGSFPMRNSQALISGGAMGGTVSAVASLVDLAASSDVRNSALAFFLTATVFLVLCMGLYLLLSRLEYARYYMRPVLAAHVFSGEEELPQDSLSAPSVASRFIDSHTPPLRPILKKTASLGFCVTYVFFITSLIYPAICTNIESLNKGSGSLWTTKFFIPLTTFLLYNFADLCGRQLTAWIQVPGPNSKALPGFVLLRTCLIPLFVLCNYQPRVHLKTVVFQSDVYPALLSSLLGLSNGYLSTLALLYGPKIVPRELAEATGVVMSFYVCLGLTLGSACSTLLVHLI

ENT2 [1] = target: T2, ENT2 (Homo sapiens, UniProt Q14542); assay: BA transport by ENT2-injected oocytes quantified by LC-MS/MS; assay type: cell-based; parameters: expressed in transfected cells; host or cells: Xenopus laevis oocytes injected with in vitro-transcribed capped mRNA from pOX-hENT2; conditions: pH 7.4, p < 0.001 compared with water-injected oocytes
T2 sequence (Q14542 1-456): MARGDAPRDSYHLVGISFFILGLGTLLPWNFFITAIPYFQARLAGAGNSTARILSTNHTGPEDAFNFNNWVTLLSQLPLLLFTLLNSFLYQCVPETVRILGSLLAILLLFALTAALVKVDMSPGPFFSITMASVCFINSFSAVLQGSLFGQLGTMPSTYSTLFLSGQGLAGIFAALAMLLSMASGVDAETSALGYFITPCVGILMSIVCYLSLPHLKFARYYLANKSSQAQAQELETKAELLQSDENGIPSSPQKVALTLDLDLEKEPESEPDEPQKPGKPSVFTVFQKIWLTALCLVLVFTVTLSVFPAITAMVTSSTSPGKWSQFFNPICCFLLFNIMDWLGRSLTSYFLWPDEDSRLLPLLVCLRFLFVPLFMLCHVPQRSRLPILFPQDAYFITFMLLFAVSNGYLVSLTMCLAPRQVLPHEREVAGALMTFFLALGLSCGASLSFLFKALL
Description: Therefore, we studied several different BAs and used a liquid chromatography–tandem mass spectrometry (LC‒MS/MS) method to quantify the transport activity of H2O-injected and ENT2 mRNA-injected oocytes using TCA as a positive control. […] We subsequently tested the ability of ENT2 to transport BAs at different physiological pH values ranging from pH 5.5 to pH 7.4 by varying the pH of the transport buffers in which the assay was conducted.
The mass spectrometric validation of the transport of all metabolites was performed with oocytes using a previously reported method ([24]). […] After an incubation at 4 °C for 24 h, the samples were centrifuged at 20,000g for 10 min, and the supernatants were collected. The samples (10 μl) were injected into a Thermo Scientific Vanquish UPLC system interfaced with a Thermo Scientific TSQ Quantiva triple-stage quadrupole mass spectrometer equipped with an H-ESI ion source. MS detection was conducted in negative ionization mode, and the transitions monitored for each metabolite are listed in Sup. Table S2. The operational mass spectrometric parameters included a capillary voltage of 4.5 kV; sheath gas of 35 arbitrary units; auxiliary gas of 10 arbitrary units; sweep gas of two arbitrary units; ion transfer tube temperature of 350 °C; vaporizer temperature of 450 °C; dwell time of 50 ms per transition; collision energy of 5 V; and collision-induced dissociation gas of 1.5 mTorr. Chromatographic separation was performed on a Kinetex […] (100 × 2.1 mm; 1.7 μm particle size) from Phenomenex. The mobile phase consisted of solvent A: water (0.1% formic acid) and solvent B: acetonitrile (0.1% formic acid). The flow rate was set at 0.3 ml/min, and the autosampler was maintained at 4 °C throughout the analysis.

ENT2 [2] = target: T2, ENT2; assay: Inhibition of 3H-nucleoside influx by BAs in ENT2-expressing Xenopus oocytes; assay type: cell-based; parameters: expressed in transfected cells; host or cells: Xenopus laevis oocytes injected with in vitro-transcribed capped mRNA from pOX-hENT2
Text: We expressed individual ENTs (ENT1, ENT2, and ENT3) in X. laevis oocytes (as described above) and analyzed the Ado influx from each of the ENTs in the presence of different BAs to better understand whether the inhibition profiles differ across human ENTs. […] We also conducted an analysis of the concentration-dependent inhibition of Ado transport to estimate the IC50 values of the BAs (Fig. 4, D–F and Table 2).
Inhibition of Ado influx in H2O- and ENT-injected oocytes by treatment with different BAs at 100 μM. D–F, concentration-dependent inhibition of Ado influx in ENT-injected oocytes by different BAs. The bars represent the mean ± SD (n = 8–12 oocytes). A representative experiment from 3 to 5 independent experiments is presented. Statistical analysis was performed using one-way ANOVA with Dunnett’s multiple comparisons test; ∗p < 0.032, ∗∗p < 0.0021, ∗∗∗∗p < 0.0001.
The generated pOX expression constructs were linearized with either the Not1 or Sac1 restriction enzymes. The digested products were purified via phenol‒chloroform extraction. The mRNAs were synthesized using mMESSAGE mMACHINE (Ambion) transcription kits according to the manufacturer’s instructions. The mRNAs were purified via lithium precipitation. Oocytes were procured from Ecocyte. Prior to experiments, procured oocytes were defolliculated by treating with collagenase A-OR II solution followed by washing with Barth’s solution. Following microscopic verification, selected oocytes were incubated to recover overnight at 25 °C in a shaker incubator. Fifty nanoliters (400–800 ng/μl) of equal amounts of mRNAs were injected into defolliculated oocytes the next day. Expression of plasmids was analyzed after RNA isolation from oocyte extracts and conducting qPCR analysis with gene-specific primers as described earlier ([30]). The injected oocytes were incubated at 15 °C for 24 h before transport assays were performed. […] Uptake was terminated by washing the oocytes three times with arrest buffer containing 20 mM uridine. Individual oocytes were shaken overnight in 10% SDS for complete dissolution, and then the radioactivity was quantified with a Beckman liquid scintillation counter. The data are presented as the mean ± SD (n = 8–12 oocytes). A representative experiment from 3 to 5 independent experiments is presented.

[3] = 3H-Ado 20 μM, sodium-free buffer, read-out: ENT2 IC50 (Ado uptake)
[4] = BA 100 μM, 3H-Ado 20 μM, sodium-free buffer

Row | SMILES | Vmax of BA transport by ENT3 (ENT3) [pmol/30 min/oocyte] | Km (ENT3) [µM] | transport by ENT2 mRNA-injected vs water-injected oocytes (LC-MS/MS) (ENT2 [1]) | IC50 (ENT2 [2]; [3]) [µM] | ENT2 % uptake inhibition (Ado) (ENT2 [2]; [4]) | inhibition of guanosine transport mediated by ENT2 (ENT2 [2]; BA 100 μM, 3H-guanosine 20 μM) | inhibition of ENT2-mediated uridine uptake (ENT2 [2]; BA 100 μM, 3H-uridine 20 μM) | IC50 (ENT2 [2]) [µM]
1 | C[C@H](CCC(=O)O)[C@H]1CC[C@H]2[C@@H]3[C@H](O)C[C@@H]4C[C@H](O)CC[C@]4(C)[C@H]3C[C@H](O)[C@]12C [CA, cholic acid] | 3.07 ± 0.04 | 168 ± 13.3 | significant transport | 7.1 ± 1.6 | 74.58% | – | – | –
2 | C[C@H](CCC(=O)O)[C@H]1CC[C@H]2[C@@H]3CC[C@@H]4C[C@H](O)CC[C@]4(C)[C@H]3C[C@H](O)[C@]12C [DCA, deoxycholic acid] | 3.4 ± 0.06 | 270 ± 24.3 | – | 0.9 ± 0.2 | 65% and 64.77% | not statistically significant | inhibition of the ENT2-mediated uridine uptake | –
3 | C[C@H](CCC(=O)NCCS(=O)(=O)O)[C@H]1CC[C@H]2[C@@H]3[C@H](O)C[C@@H]4C[C@H](O)CC[C@]4(C)[C@H]3C[C@H](O)[C@]12C [TCA, taurocholic acid] | – | – | significant transport | – | 70.68% | – | – | 19.5 ± 4.5

Source: article PMC12152883, “Bile acids inhibit equilibrative adenosine transport to alter adenosine receptor signaling in cholestasis” (The Journal of Biological Chemistry, 2025)
